What was measured:
CDKL2 (human) = CDKL2 (human) (UniProt Q92772)
MAPK3 (human) = MAPK3 (human) (UniProt P27361)
BTK (human) = BTK (human) (UniProt Q06187)
CAMK2G (human) = CAMK2G (human) (UniProt Q13555)
MAP3K5 (human) = MAP3K5 (human) (UniProt Q99683)
MAST3 (human) = MAST3 (human) (UniProt O60307)
RPS6KA4 KD1 KD2 (human) = RPS6KA4 KD1 KD2 (human) (UniProt O75676)
STRADA (human) = STRADA (human) (UniProt Q7RTN6)
STK4 (human) = STK4 (human) (UniProt Q13043)

Measured: IC50

Chain of MAPK3 (human) (P27361 whole entry, looked up): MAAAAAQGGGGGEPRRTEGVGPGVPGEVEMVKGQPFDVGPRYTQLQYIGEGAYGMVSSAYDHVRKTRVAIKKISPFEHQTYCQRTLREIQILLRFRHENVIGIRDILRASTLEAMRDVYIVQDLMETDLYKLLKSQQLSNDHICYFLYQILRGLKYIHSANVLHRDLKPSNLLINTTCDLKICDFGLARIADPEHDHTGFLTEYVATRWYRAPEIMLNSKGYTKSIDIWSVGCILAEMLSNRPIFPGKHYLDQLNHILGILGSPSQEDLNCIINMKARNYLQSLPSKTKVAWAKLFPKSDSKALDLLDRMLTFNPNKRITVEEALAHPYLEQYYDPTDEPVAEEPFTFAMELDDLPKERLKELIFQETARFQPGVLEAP
Chain of MAP3K5 (human) (Q99683 whole entry, looked up): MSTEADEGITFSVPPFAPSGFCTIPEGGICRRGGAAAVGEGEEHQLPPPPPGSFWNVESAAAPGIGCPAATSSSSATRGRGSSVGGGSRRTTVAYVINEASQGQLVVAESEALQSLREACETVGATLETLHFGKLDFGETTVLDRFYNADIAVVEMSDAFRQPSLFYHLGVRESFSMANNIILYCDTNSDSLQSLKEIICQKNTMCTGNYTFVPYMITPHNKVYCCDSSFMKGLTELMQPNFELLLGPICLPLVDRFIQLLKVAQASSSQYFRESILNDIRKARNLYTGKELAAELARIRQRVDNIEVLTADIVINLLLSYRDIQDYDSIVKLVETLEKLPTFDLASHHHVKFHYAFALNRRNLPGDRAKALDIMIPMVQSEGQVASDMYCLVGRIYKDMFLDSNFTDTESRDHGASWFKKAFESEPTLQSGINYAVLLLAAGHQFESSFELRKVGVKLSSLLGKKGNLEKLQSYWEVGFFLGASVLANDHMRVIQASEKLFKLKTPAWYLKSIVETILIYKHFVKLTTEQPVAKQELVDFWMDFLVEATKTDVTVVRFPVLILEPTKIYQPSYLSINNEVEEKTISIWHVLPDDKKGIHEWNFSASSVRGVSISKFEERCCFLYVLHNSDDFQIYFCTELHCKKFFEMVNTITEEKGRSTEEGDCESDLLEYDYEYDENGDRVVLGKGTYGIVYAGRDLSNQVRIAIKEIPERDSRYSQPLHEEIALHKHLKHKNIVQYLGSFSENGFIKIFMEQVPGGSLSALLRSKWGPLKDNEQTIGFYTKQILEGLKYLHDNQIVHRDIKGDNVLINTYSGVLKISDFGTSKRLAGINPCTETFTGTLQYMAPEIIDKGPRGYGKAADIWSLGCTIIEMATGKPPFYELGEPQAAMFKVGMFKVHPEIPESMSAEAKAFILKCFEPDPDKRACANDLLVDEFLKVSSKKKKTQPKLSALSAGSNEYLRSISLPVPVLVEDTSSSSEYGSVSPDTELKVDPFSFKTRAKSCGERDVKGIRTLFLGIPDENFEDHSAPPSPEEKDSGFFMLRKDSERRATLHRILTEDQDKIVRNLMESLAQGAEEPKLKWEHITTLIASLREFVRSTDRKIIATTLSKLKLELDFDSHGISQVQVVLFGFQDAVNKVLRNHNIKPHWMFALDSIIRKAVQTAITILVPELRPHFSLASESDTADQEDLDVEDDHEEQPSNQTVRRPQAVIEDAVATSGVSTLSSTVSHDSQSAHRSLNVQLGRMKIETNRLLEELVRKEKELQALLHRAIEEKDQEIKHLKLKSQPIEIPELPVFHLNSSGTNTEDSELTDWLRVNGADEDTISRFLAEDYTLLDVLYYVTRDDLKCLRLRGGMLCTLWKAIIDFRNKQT
Chain of BTK (human) (Q06187 whole entry, looked up): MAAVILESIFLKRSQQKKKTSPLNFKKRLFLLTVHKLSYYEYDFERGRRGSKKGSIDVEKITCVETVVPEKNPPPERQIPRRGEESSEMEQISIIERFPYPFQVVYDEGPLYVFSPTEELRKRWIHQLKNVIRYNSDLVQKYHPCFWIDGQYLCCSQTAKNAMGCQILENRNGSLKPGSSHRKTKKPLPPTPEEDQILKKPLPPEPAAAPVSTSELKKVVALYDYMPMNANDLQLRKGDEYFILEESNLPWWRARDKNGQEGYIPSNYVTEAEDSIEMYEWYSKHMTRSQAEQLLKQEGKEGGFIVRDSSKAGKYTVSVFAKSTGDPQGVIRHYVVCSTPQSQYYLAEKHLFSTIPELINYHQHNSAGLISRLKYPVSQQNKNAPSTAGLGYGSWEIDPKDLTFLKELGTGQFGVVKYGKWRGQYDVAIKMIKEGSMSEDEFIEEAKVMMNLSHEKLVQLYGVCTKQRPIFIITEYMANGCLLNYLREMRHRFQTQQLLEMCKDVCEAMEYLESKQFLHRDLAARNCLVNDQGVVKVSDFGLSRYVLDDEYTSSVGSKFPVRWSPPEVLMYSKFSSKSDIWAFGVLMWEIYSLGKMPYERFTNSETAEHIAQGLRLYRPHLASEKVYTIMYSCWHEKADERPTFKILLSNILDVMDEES
Chain of STK4 (human) (Q13043 whole entry, looked up): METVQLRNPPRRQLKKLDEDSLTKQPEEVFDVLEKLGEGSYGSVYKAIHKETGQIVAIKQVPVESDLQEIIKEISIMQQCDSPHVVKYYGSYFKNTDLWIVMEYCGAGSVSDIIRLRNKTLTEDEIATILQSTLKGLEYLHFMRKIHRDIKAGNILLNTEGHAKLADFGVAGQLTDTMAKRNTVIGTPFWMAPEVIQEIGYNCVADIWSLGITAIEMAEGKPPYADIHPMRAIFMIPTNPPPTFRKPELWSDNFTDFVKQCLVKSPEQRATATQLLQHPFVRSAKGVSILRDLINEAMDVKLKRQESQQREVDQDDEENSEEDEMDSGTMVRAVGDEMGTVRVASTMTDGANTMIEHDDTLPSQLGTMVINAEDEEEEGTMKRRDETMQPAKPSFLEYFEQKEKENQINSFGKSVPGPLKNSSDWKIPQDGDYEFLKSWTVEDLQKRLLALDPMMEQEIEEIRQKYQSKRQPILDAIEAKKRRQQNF
Chain of STRADA (human) (Q7RTN6 whole entry, looked up): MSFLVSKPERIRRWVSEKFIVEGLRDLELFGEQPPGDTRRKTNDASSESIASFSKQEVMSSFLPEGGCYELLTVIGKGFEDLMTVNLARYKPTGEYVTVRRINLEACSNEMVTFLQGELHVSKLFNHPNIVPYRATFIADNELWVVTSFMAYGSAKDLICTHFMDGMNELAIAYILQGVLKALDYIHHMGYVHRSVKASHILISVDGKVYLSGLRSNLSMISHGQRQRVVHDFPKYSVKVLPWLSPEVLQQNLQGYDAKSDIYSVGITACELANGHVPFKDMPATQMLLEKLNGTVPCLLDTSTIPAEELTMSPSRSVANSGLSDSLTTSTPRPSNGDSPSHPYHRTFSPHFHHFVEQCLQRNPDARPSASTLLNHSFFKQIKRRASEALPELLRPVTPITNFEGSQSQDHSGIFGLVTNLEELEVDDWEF
Chain of MAST3 (human) (O60307 whole entry, looked up): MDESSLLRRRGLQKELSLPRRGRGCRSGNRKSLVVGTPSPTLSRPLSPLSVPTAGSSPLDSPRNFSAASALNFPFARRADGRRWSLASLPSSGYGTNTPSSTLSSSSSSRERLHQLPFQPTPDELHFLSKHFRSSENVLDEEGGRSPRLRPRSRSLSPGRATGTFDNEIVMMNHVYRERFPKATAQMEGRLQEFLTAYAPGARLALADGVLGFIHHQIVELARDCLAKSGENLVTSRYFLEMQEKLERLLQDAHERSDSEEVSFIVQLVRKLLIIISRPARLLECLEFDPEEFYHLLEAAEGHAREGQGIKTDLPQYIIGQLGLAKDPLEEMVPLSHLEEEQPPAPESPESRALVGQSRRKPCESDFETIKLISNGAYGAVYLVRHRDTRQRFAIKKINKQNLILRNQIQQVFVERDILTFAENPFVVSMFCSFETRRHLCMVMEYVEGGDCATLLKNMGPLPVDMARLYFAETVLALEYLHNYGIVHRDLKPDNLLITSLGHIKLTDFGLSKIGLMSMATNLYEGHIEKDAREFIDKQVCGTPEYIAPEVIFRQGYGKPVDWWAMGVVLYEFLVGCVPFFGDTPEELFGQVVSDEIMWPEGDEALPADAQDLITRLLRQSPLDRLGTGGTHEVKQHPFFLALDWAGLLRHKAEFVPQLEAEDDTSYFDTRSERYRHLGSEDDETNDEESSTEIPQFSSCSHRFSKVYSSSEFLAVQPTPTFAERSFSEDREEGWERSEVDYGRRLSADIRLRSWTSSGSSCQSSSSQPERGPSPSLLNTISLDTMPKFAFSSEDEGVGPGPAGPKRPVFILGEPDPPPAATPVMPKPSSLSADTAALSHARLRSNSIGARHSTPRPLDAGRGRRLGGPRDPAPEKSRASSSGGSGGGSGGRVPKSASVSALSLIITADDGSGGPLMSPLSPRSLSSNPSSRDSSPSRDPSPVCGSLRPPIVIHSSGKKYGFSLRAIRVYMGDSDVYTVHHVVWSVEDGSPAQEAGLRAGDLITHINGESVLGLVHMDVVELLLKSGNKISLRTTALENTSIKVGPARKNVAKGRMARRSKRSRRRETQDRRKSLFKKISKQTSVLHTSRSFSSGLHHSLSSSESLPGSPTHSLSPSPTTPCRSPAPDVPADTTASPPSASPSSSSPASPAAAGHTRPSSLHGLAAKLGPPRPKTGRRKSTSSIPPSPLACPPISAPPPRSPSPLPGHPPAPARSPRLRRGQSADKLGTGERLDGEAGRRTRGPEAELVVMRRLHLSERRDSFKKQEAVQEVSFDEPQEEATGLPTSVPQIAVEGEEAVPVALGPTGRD

CN1CC[C@H](c2c(O)cc(O)c3c(=O)cc(-c4ccccc4Cl)oc23)[C@H](O)C1
8.42 µM: CAMK2G (human)
6.42 µM: RPS6KA4 KD1 KD2 (human)
> 10 µM: all other assays above

Reference: the kinase profiling compilation of Christmann-Franck et al. (2016)
